± gives the standard deviation of the averaged measurements.
Assays:
Test in all cases: level (log10 ratio to DMSO vehicle control); higher = higher biomarker level / cell amount than vehicle control
[1] = compound: O=C(O)CCC(F)(C(F)(F)F)C(F)(F)F [4,4-bis(Trifluoromethyl)-4-fluoropropanoic acid] (in DMSO)
Procedure: (§1)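 BioMAP Diversity Plus panel of 12 human primary cell co-culture systems (3C, 4H, LPS, SAg, BT, BF4T, BE3C, CASM3C, HDF3CGF, KF3CT, MyoF, Mphg). Compounds were added 1 h before stimulation and left for 24 h (MyoF 48 h; BT 72 h for soluble read-outs or 6 d for IgG). Biomarkers were read by ELISA, cytotoxicity by SRB, PBMC viability and proliferation by Alamar Blue. Each well value was divided by the mean of 8 DMSO control wells on the same plate and log10 transformed; duplicate blinded samples were tested at 4 concentrations.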

[2] = compound: O=C(O)C(F)(F)C(F)(F)C(F)(F)OC(F)(F)F [Perfluoro(4-methoxybutanoic) acid] (in DMSO)
Procedure: as §1

[3] = compound: OCC(F)(F)C(F)(F)C(F)(F)C(F)F [1H,1H,5H-Perfluoropentanol] (in DMSO)
Procedure: as §1

[4] = compound: OCC(F)(F)OC(F)(F)C(F)(F)OC(F)(F)C(F)(F)OC(F)(F)CO [1H,1H,11H,11H-Perfluorotetraethylene glycol] (in DMSO)
Procedure: as §1

Perfluoroundecanoic acid = compound: O=C(O)C(F)(F)C(F)(F)C(F)(F)C(F)(F)C(F)(F)C(F)(F)C(F)(F)C(F)(F)C(F)(F)C(F)(F)F [Perfluoroundecanoic acid] (in DMSO); conditions: 6700 nM
Procedure: as §1

Perfluorononanoic acid = compound: O=C(O)C(F)(F)C(F)(F)C(F)(F)C(F)(F)C(F)(F)C(F)(F)C(F)(F)C(F)(F)F [Perfluorononanoic acid] (in DMSO)
Procedure: as §1

[5] = compound: C[C@@H]1C[C@H]2[C@@H]3CCC4=CC(=O)C=C[C@]4(C)[C@@]3(F)[C@@H](O)C[C@]2(C)[C@@]1(O)C(=O)COP(=O)(O)O [Dexamethasone sodium phosphate] (in DMSO)
Procedure: as §1

Row | Test System | level (log10) ([1]; 6700 nM) | level (log10) ([1]; 20000 nM) | level (log10) ([1]; 60000 nM) | level (log10) ([2]; 6700 nM) | level (log10) ([2]; 20000 nM) | level (log10) ([2]; 60000 nM) | level (log10) ([3]; 6700 nM) | level (log10) ([3]; 20000 nM) | level (log10) ([3]; 60000 nM) | level (log10) ([4]; 6700 nM) | level (log10) ([4]; 20000 nM) | level (log10) ([4]; 60000 nM) | level (log10) (Perfluoroundecanoic acid) | level (log10) (Perfluorononanoic acid; 6700 nM) | level (log10) (Perfluorononanoic acid; 20000 nM) | level (log10) ([5]; 1500 nM) | level (log10) ([5]; 4400 nM) | level (log10) ([5]; 13000 nM) | level (log10) ([5]; 40000 nM)
1 | 3C:CD87/uPAR | 0.051 ± 0.0057 | 0.0265 ± 0.0078 | 0.0295 ± 0.044 | -0.03 ± 0.058 | -0.035 ± 0.051 | -0.0265 ± 0.04 | -0.0135 ± 0.019 | 0.0015 ± 0.011 | -0.0095 ± 0.013 | 0.008 ± 0.03 | -0.007 ± 0.023 | -0.0005 ± 0.011 | -0.0125 ± 0.005 | 0.002 ± 0.011 | -0.018 ± 0.016 | 0.0545 ± 0.013 | 0.048 ± 0.02 | 0.0455 ± 0.00071 | 0.016 ± 0.016
2 | 3C:CXCL8/IL-8 | 0.0215 ± 0.039 | 0.014 ± 0.055 | 0.0285 ± 0.054 | 0.008 ± 0.014 | 0.001 ± 0.0099 | 0.022 ± 0.025 | 0.0115 ± 0.023 | 0.0035 ± 0.03 | 0.0545 ± 0.063 | 0.003 ± 0.025 | -0.009 ± 0.0099 | -0.0045 ± 0.0035 | -0.022 ± 0.02 | 0.0175 ± 0.0021 | 0.0475 ± 0.013 | 0.014 ± 0.027 | -0.0015 ± 0.0035 | -0.0035 ± 0.032 | -0.007 ± 0.062
3 | 3C:CXCL9/MIG | 0.006 ± 0.0071 | -0.0075 ± 0.0035 | 0.0015 ± 0.0064 | -0.012 ± 0.013 | -0.012 ± 0.017 | -0.001 ± 0.013 | 0 ± 0.0057 | -0.0035 ± 0.0064 | 0.0105 ± 0.00071 | 0.0095 ± 0.022 | 0.0065 ± 0.026 | 0.012 ± 0.0028 | 0.0025 ± 0.005 | -0.0085 ± 0.0064 | 0.0045 ± 0.0064 | 0.0025 ± 0.0021 | 0.001 ± 0.0085 | -0.004 ± 0.0071 | 0.003 ± 0.0085
4 | 3C:HLA-DR | -0.0125 ± 0.023 | -0.0085 ± 0.012 | -0.0065 ± 0.0035 | 0.0105 ± 0.013 | 0.0055 ± 0.023 | 0.0015 ± 0.016 | -0.02 ± 0.0028 | -0.0075 ± 0.025 | 0.0385 ± 0.023 | -0.0055 ± 0.049 | -0.001 ± 0.023 | -0.047 ± 0.028 | -0.023 ± 0.0014 | -0.024 ± 0.033 | 0.017 ± 0.021 | -0.0025 ± 0.012 | -0.0065 ± 0.022 | 0.0035 ± 0.0035 | 0.0135 ± 0.0035
5 | 3C:Proliferation | -0.05 ± 0.051 | -0.015 ± 0.058 | 0.0345 ± 0.03 | -0.057 ± 0.023 | -0.0055 ± 0.046 | -0.036 ± 0.03 | -0.0045 ± 0.066 | 0.005 ± 0.0071 | -0.033 ± 0.093 | -0.04 ± 0.067 | -0.116 ± 0.061 | -0.248 ± 0.049 | 0.027 ± 0.013 | 0.0095 ± 0.073 | 0.0795 ± 0.03 | -0.0115 ± 0.005 | 0.011 ± 0.092 | -0.0045 ± 0.052 | 0.015 ± 0.02
6 | 3C:SRB | -0.001 ± 0.0057 | 0.0045 ± 0.019 | 0.0125 ± 0.0078 | -0.0175 ± 0.018 | -0.0255 ± 0.018 | -0.0195 ± 0.0064 | -0.011 | -0.006 ± 0.03 | -0.015 ± 0.011 | 0.003 ± 0.0071 | -0.0185 ± 0.013 | -0.079 ± 0.033 | 0.0095 ± 0.015 | -0.002 ± 0.0042 | -0.003 | -0.0005 ± 0.00071 | -0.005 ± 0.0085 | -0.0025 ± 0.025 | 0.0035 ± 0.025
7 | 4H:CCL2/MCP-1 | 0.016 ± 0.024 | 0.0275 ± 0.03 | 0.023 ± 0.047 | -0.0235 ± 0.013 | -0.026 ± 0.0028 | 0.0005 ± 0.061 | -0.0265 ± 0.046 | -0.0115 ± 0.033 | 0.039 ± 0.055 | -0.0525 ± 0.029 | -0.126 ± 0.0071 | -0.196 ± 0.027 | -0.024 ± 0.023 | -0.074 ± 0.013 | -0.0405 ± 0.005 | -0.0075 ± 0.018 | 0.005 ± 0.033 | 0.017 ± 0.041 | 0.043 ± 0.025
8 | 4H:CCL26/Eotaxin-3 | -0.0225 ± 0.0064 | 0.006 ± 0.033 | -0.0015 ± 0.049 | 0.018 ± 0.0085 | 0.0205 ± 0.013 | 0.0245 ± 0.023 | -0.008 ± 0.011 | 0.008 ± 0.0085 | -0.005 ± 0.0071 | -0.0255 ± 0.0064 | -0.017 ± 0.044 | 0.0375 ± 0.028 | 0.016 ± 0.03 | -0.008 ± 0.0071 | -0.03 ± 0.018 | -0.0175 ± 0.0035 | -0.0315 ± 0.0035 | -0.0285 ± 0.029 | -0.052 ± 0.078
9 | 4H:CD62P/P-selectin | -0.0155 ± 0.022 | -0.032 ± 0.031 | 0.005 ± 0.086 | 0.0035 ± 0.0078 | 0.033 ± 0.068 | -0.005 ± 0.059 | -0.0245 ± 0.0021 | 0.0205 ± 0.061 | 0.027 ± 0.038 | -0.0065 ± 0.035 | -0.0155 ± 0.018 | -0.0055 ± 0.0078 | 0.064 ± 0.0028 | 0.015 ± 0.0099 | 0.0605 ± 0.011 | -0.0355 ± 0.037 | -0.038 ± 0.0042 | -0.022 ± 0.011 | -0.033 ± 0.047
10 | 4H:CD87/uPAR | -0.0095 ± 0.056 | 0.0235 ± 0.035 | 0.0275 ± 0.067 | 0.0495 ± 0.039 | 0.035 ± 0.048 | 0.046 ± 0.04 | -0.0225 ± 0.0092 | 0.0025 ± 0.019 | 0.007 ± 0.034 | 0.001 ± 0.082 | -0.0065 ± 0.053 | 0.0315 ± 0.012 | -0.008 ± 0.025 | -0.0245 ± 0.026 | -0.012 ± 0.0071 | -0.0055 ± 0.0021 | -0.0195 ± 0.022 | -0.024 ± 0.086 | -0.0375 ± 0.094
11 | 4H:CD106/VCAM-1 | -0.014 ± 0.0042 | -0.004 | -0.0205 ± 0.022 | -0.0105 ± 0.012 | -0.0075 ± 0.005 | -0.002 ± 0.018 | -0.0075 ± 0.0035 | 0.0115 ± 0.0021 | 0.018 ± 0.021 | 0.0345 ± 0.011 | -0.016 ± 0.011 | -0.078 ± 0.016 | -0.03 ± 0.0057 | -0.0245 ± 0.032 | -0.029 ± 0.0071 | 0.004 ± 0.02 | -0.011 ± 0.0042 | -0.012 ± 0.0028 | -0.005 ± 0.011
12 | 4H:SRB | -0.008 | -0.0125 ± 0.011 | 0.014 ± 0.02 | -0.01 ± 0.0014 | -0.018 ± 0.0099 | -0.0155 ± 0.0021 | -0.003 ± 0.0014 | 0.011 ± 0.0042 | 0.0065 ± 0.005 | -0.0045 ± 0.013 | -0.032 ± 0.023 | -0.0795 ± 0.037 | -0.0105 ± 0.011 | 0.002 ± 0.0014 | -0.008 ± 0.0042 | 0.001 ± 0.011 | -0.0135 ± 0.005 | 0.005 ± 0.014 | 0.007 ± 0.038
13 | 4H:VEGFR2 | 0.0265 ± 0.054 | 0.0195 ± 0.044 | 0.03 ± 0.045 | 0.009 ± 0.033 | 0.019 ± 0.038 | 0.0075 ± 0.011 | -0.021 ± 0.028 | -0.0215 ± 0.0021 | 0.0395 ± 0.073 | 0.008 ± 0.042 | 0.003 ± 0.05 | 0.07 ± 0.051 | -0.008 ± 0.0085 | -0.0565 ± 0.039 | -0.033 ± 0.0099 | 0.025 ± 0.0057 | -0.0665 ± 0.057 | -0.0115 ± 0.069 | -0.004 ± 0.059
14 | BE3C:CD54/ICAM-1 | -0.007 | -0.019 ± 0.014 | -0.002 ± 0.0099 | -0.0015 ± 0.013 | -0.007 ± 0.0085 | -0.007 ± 0.017 | 0.0095 ± 0.042 | 0.02 ± 0.0014 | 0.0175 ± 0.028 | -0.004 ± 0.011 | 0.012 ± 0.0099 | -0.048 ± 0.0099 | 0.004 ± 0.016 | -0.004 ± 0.034 | 0.0095 ± 0.0035 | -0.0035 ± 0.033 | -0.0265 ± 0.005 | -0.0205 ± 0.0021 | -0.0105 ± 0.021
15 | BE3C:CD87/uPAR | 0.0005 ± 0.028 | -0.004 ± 0.044 | -0.01 ± 0.0028 | 0.0145 ± 0.011 | -0.0195 ± 0.019 | 0.002 ± 0.0099 | -0.012 ± 0.0085 | -0.01 ± 0.0071 | 0 ± 0.027 | 0.0025 ± 0.0078 | 0.01 ± 0.0071 | -0.0355 ± 0.0078 | 0.138 ± 0.019 | 0.046 ± 0.013 | 0.0495 ± 0.019 | -0.08 ± 0.048 | -0.102 ± 0.0057 | -0.108 ± 0.033 | -0.096 ± 0.0042

— the supplement of paper PMC10331698
